Values of other authors in patent US20250228877A1, “MANAGEMENT OF SKIN AILMENTS” (priority 2021, published 2025).

Tests used:
[1] = 1-4% IP-6 in drinking water; measured by gadolinium uptake
[2] = 7 days following treatment
[3] = tested on: human umbilical vein endothelial cell (HUVEC) tube formation; settings: after 24 hours; reconstituted extracellular matrix

Structure (SMILES): O=P(O)(O)O[C@H]1[C@H](OP(=O)(O)O)[C@@H](OP(=O)(O)O)[C@H](OP(=O)(O)O)[C@@H](OP(=O)(O)O)[C@H]1OP(=O)(O)O [IP-6, myo-inositol hexakisphosphate]
- angiogenesis evaluated by micro-vessel density (MVD) [1]: inhibited angiogenesis
- vascularity (number of blood vessel formation) [2]: inhibited vascularity
- number of capillaries [3]: reduction
